Source: patent publication US20250145585A1, “HETEROCYCLIC INHIBITORS OF IGF-1R FOR TREATMENT OF DISEASE” (HORIZON THERAPEUTICS IRELAND DAC, priority 2023, published 2025)

What follows are compounds tested against T1, IGF-1R (Homo sapiens, UniProt P08069) (assay: Example B-2: IGF-1R Assay (PathHunter cell lines, EC80 agonist challenge, chemiluminescent detection)). Settings: PathHunter cells, compound 60 minutes at 37° C., EC80 agonist 3 hours; read-out: IC50, Biological Activity against IGF-1R (Table B2).
T1 construct: expressed in transfected cells
Type: cell-based
Outline: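 PathHunter cells were pre-incubated with compound for 60 min at 37° C (1% vehicle), then challenged with EC80 agonist for 3 h at room temperature. Chemiluminescent detection after 1 h gave % inhibition relative to EC80 and vehicle controls, from which IC50 was derived.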

T1 sequence (P08069 31-1367): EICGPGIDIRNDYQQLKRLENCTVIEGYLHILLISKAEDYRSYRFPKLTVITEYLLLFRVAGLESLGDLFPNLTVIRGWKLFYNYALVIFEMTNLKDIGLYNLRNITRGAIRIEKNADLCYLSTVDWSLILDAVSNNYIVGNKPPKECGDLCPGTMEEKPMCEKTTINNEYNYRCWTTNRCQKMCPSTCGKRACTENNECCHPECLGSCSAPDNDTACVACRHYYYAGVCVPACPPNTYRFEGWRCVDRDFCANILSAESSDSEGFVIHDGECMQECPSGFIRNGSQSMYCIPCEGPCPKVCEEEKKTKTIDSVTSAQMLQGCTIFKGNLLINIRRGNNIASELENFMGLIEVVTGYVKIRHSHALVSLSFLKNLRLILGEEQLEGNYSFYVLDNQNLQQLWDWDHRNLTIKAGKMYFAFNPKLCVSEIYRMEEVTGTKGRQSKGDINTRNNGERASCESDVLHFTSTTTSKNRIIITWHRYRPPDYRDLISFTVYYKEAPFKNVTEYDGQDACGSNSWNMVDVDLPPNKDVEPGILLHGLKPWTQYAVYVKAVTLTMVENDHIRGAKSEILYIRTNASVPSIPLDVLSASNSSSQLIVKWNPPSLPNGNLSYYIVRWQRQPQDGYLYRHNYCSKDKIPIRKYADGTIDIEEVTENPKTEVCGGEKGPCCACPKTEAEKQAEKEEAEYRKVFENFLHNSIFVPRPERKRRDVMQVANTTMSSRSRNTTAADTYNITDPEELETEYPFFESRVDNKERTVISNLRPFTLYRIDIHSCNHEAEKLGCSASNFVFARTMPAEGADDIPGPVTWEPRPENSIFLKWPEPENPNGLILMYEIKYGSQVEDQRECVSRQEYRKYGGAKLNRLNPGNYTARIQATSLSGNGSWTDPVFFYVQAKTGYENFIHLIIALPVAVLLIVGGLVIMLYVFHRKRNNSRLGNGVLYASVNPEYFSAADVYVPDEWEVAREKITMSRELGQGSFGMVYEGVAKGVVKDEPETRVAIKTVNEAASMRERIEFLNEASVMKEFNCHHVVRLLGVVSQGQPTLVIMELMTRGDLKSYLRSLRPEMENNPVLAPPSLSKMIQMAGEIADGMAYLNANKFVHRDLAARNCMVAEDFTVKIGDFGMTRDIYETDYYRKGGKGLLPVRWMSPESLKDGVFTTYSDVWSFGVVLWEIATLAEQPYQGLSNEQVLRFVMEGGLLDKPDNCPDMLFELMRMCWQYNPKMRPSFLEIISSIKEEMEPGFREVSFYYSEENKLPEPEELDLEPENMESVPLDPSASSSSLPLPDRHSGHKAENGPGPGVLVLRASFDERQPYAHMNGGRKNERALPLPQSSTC

SMILES	IC50 [nM]
CC1(C)C(=O)N(c2ccc(S(=O)(=O)C(F)(F)F)cc2)C(=O)N1Cc1ccnc(N[C@H]2CCOC2)c1 [Compound 320, (S)-5,5-dimethyl-1-((2-((tetrahydrofuran-3-yl)amino)pyridin-4-yl)methyl)-3-(4-((trifluoromethyl)sulfonyl)phenyl) imidazolidine-2,4-dione]	≤ 500
CC(C)(C#N)c1ccc(N2C(=O)N(Cc3ccnc(N[C@H]4CCOC4)c3)C(C)(C)C2=O)cc1 [Compound 152, (S)-2-(4-(4,4-dimethyl-2,5-dioxo-3-((2-((tetrahydrofuran-3-yl)amino)pyridin-4-yl)methyl)imidazolidin-1-yl)phenyl)-2-methylpropanenitrile]	500 to 2000
CN1CC(C)(C)c2ccc(N3C(=O)N(Cc4ccnc(NC5CCOCC5)c4)C(C)(C)C3=O)cc21 [Compound 210, 5,5-dimethyl-1-((2-((tetrahydro-2H-pyran-4-yl)amino)pyridin-4-yl)methyl)-3-(1,3,3-trimethylindolin-6-yl)imidazolidine-2,4-dione]	≤ 500
CC1(C)C(=O)N(c2ccc(C3(C(F)(F)F)CC3)cc2)C(=O)N1Cc1ccnc2c1CCC(=O)N2 [Compound 38, 5,5-dimethyl-1-((7-oxo-5,6,7,8-tetrahydro-1,8-naphthyridin-4-yl)methyl)-3-(4-(1-(trifluoromethyl)cyclopropyl)phenyl) imidazolidine-2,4-dione]	≤ 500
CN1CCC(Nc2cc(CN3C(=O)N(c4ccc(S(=O)(=O)C(F)(F)F)cc4)C(=O)C3(C)C)ccn2)CC1=O (centres unmarked) [Compound 326, 5,5-dimethyl-1-((2-((1-methyl-2-oxopiperidin-4-yl)amino)pyridin-4-yl)methyl)-3-(4-((trifluoromethyl)sulfonyl)phenyl) imidazolidine-2,4-dione]	2000 to 10000
CC1(C)C(=O)N(c2ccc3c(c2)N(S(C)(=O)=O)CC32CCC2)C(=O)N1Cc1ccnc(N[C@H]2CCOC2)c1 [Compound 204, (S)-5,5-dimethyl-3-(1′-(methylsulfonyl)spiro[cyclobutane-1,3′-indolin]-6′-yl)-1-((2-((tetrahydrofuran-3-yl)amino)pyridin-4-yl)methyl)imidazolidine-2,4-dione]	≤ 500
COCCN1CC(C)(C)c2ccc(N3C(=O)N(Cc4ccnc(NC5CCOCC5)c4)C(C)(C)C3=O)cc21 [Compound 227, 3-(1-(2-methoxyethyl)-3,3-dimethylindolin-6-yl)-5,5-dimethyl-1-((2-((tetrahydro-2H-pyran-4-yl)amino)pyridin-4-yl)methyl)imidazolidine-2,4-dione]	≤ 500
CC(C)OC[C@H](C)Nc1cc(CN2C(=O)N(c3ccc(C4(C(F)(F)F)CC4)cc3)C(=O)C2(C)C)ccn1 [Compound 158, (S)-1-((2-((1-isopropoxypropan-2-yl)amino)pyridin-4-yl)methyl)-5,5-dimethyl-3-(4-(1-(trifluoromethyl)cyclopropyl)phenyl) imidazolidine-2,4-dione]	500 to 2000
CC1(C)CN(S(C)(=O)=O)c2cc(N3C(=O)N(Cc4ccnc(N[C@@H]5C[C@@H]5F)c4)C(C)(C)C3=O)ccc21 [Compound 208, 3-(3,3-dimethyl-1-(methylsulfonyl)indolin-6-yl)-1-((2-(((1R,2S)-2-fluorocyclopropyl)amino)pyridin-4-yl)methyl)-5,5-dimethylimidazolidine-2,4-dione]	≤ 500
CC1(C)C(=O)N(c2ccc3c(c2)N(C(=O)C2CC2)CC3)C(=O)N1Cc1ccnc(N[C@H]2[C@@H]3COC[C@@H]32)c1 [Compound 252, 1-((2-(((1R,5S,6r)-3-oxabicyclo[3.1.0]hexan-6-yl)amino)pyridin-4-yl)methyl)-3-(1-(cyclopropanecarbonyl)indolin-6-yl)-5,5-dimethylimidazolidine-2,4-dione]	> 10000
Cn1cc(CNc2cc(CN3C(=O)N(c4ccc(C5(C(F)(F)F)CC5)cc4)C(=O)C3(C)C)ccn2)cn1 [Compound 169, 5,5-dimethyl-1-((2-(((1-methyl-1H-pyrazol-4-yl)methyl)amino)pyridin-4-yl)methyl)-3-(4-(1-(trifluoromethyl)cyclopropyl)phenyl) imidazolidine-2,4-dione]	≤ 500
CC1(C)C(=O)N(c2ccc(S(=O)(=O)C(F)(F)F)cc2)C(=O)N1Cc1ccnc(N[C@H]2CCOC[C@@H]2F)c1 [Compound 334, 1-((2-(((3R,4S)-3-fluorotetrahydro-2H-pyran-4-yl)amino)pyridin-4-yl)methyl)-5,5-dimethyl-3-(4-((trifluoromethyl)sulfonyl)phenyl) imidazolidine-2,4-dione]	500 to 2000
CC1(C)C(=O)N(c2ccc3c(c2)N(C(=O)C2CC2)CC32CCC2)C(=O)N1Cc1ccnc(NC2C3COCC32)c1 (centres unmarked) [Compound 234, 1-((2-((3-oxabicyclo[3.1.0]hexan-6-yl)amino)pyridin-4-yl)methyl)-3-(1′-(cyclopropanecarbonyl)spiro [cyclobutane-1,3′-indolin]-6′-yl)-5,5-dimethylimidazolidine-2,4-dione]	≤ 500
COC(C)(C)CNc1cc(CN2C(=O)N(c3ccc4c(c3)N(S(C)(=O)=O)CC43CCC3)C(=O)C2(C)C)ccn1 [Compound 235, 1-((2-((2-methoxy-2-methylpropyl)amino)pyridin-4-yl)methyl)-5,5-dimethyl-3-(1′-(methylsulfonyl)spiro[cyclobutane-1,3′-indolin]-6′-yl)imidazolidine-2,4-dione]	500 to 2000
COC[C@@H](C)Nc1cc(CN2C(=O)N(c3ccc4c(c3)N(C)CC4(C)C)C(=O)C2(C)C)ccn1 [Compound 202, (R)-1-((2-((1-methoxypropan-2-yl)amino)pyridin-4-yl)methyl)-5,5-dimethyl-3-(1,3,3-trimethylindolin-6-yl)imidazolidine-2,4-dione]	≤ 500
CC(C)(C#N)c1ccc(N2C(=O)N(Cc3ccnc4c3CC(=O)N4)C(C)(C)C2=O)cc1 [Compound 29, 2-(4-(4,4-dimethyl-2,5-dioxo-3-((2-oxo-2,3-dihydro-1H-pyrrolo[2,3-b]pyridin-4-yl)methyl)imidazolidin-1-yl)phenyl)-2-methylpropanenitrile]	≤ 500
CC(C)Nc1cc(CN2C(=O)N(c3ccc4c(c3)N(S(C)(=O)=O)CC43CCC3)C(=O)C2(C)C)ccn1 [Compound 195, 1-((2-(isopropylamino)pyridin-4-yl)methyl)-5,5-dimethyl-3-(1′-(methylsulfonyl)spiro[cyclobutane-1,3′-indolin]-6′-yl)imidazolidine-2,4-dione]	≤ 500
CO[C@H](C)CNc1cc(CN2C(=O)N(c3ccc4c(c3)N(S(C)(=O)=O)CC43CCC3)C(=O)C2(C)C)ccn1 [Compound 239, (R)-1-((2-((2-methoxypropyl)amino)pyridin-4-yl)methyl)-5,5-dimethyl-3-(1′-(methylsulfonyl)spiro[cyclobutane-1,3′-indolin]-6′-yl)imidazolidine-2,4-dione]	≤ 500
CC(C)Nc1cc(CN2C(=O)N(c3ccc4c(c3)N(S(C)(=O)=O)CC43CC3)C(=O)C2(C)C)ccn1 [Compound 200, 1-((2-(isopropylamino)pyridin-4-yl)methyl)-5,5-dimethyl-3-(1′-(methylsulfonyl)spiro[cyclopropane-1,3′-indolin]-6′-yl)imidazolidine-2,4-dione]	≤ 500
CC1(C)C(=O)N(c2ccc3c(c2)N(S(C)(=O)=O)CC3)C(=O)N1Cc1ccnc(N[C@H]2[C@@H]3COC[C@@H]32)c1 [Compound 251, 1-((2-(((1R,5S,6r)-3-oxabicyclo[3.1.0]hexan-6-yl)amino)pyridin-4-yl)methyl)-5,5-dimethyl-3-(1-(methylsulfonyl)indolin-6-yl)imidazolidine-2,4-dione]	> 10000
CC1(C)C(=O)N(c2ccc(C(C)(C)C(F)(F)F)cc2)C(=O)N1Cc1ccnc2c1C(F)(F)C(=O)N2 [Compound 49, 1-((3,3-difluoro-2-oxo-2,3-dihydro-1H-pyrrolo[2,3-b]pyridin-4-yl)methyl)-5,5-dimethyl-3-(4-(1,1,1-trifluoro-2-methylpropan-2-yl)phenyl)imidazolidine-2,4-dione]	≤ 500
CC1(C)C(=O)N(c2ccc(S(C)(=O)=O)cc2)C(=O)N1Cc1ccnc2c1CC(=O)N2 [Compound 62, 5,5-dimethyl-3-(4-(methylsulfonyl)phenyl)-1-((2-oxo-2,3-dihydro-1H-pyrrolo[2,3-b]pyridin-4-yl)methyl)imidazolidine-2,4-dione]	> 10000
CC1(C)C(=O)N(c2ccc3c(c2)N(C(=O)C2CC2)CC32CC2)C(=O)N1Cc1ccnc(N[C@H]2[C@@H]3COC[C@@H]32)c1 [Compound 231, 1-((2-((1R,5S,6r)-3-oxabicyclo[3.1.0]hexan-6-ylamino)pyridin-4-yl)methyl)-3-(1′-(cyclopropanecarbonyl)spiro[cyclopropane-1,3′-indolin]-6′-yl)-5,5-dimethylimidazolidine-2,4-dione]	≤ 500
C[C@H]1CNc2nccc(CN3C(=O)N(c4ccc(C5(C(F)(F)F)CC5)cc4)C(=O)C3(C)C)c2O1 [Compound 28, (S)-5,5-dimethyl-1-((2-methyl-3,4-dihydro-2H-pyrido[3,2-b][1,4]oxazin-8-yl)methyl)-3-(4-(1-(trifluoromethyl)cyclopropyl)phenyl) imidazolidine-2,4-dione]	≤ 500
CC1(C)C(=O)N(c2ccc(OC(F)(F)F)cc2)C(=O)N1Cc1ccnc2c1CC(=O)N2 [Compound 285, 5,5-dimethyl-1-((2-oxo-2,3-dihydro-1H-pyrrolo[2,3-b]pyridin-4-yl)methyl)-3-(4-(trifluoromethoxy)phenyl) imidazolidine-2,4-dione]	500 to 2000
CC1(C)C(=O)N(c2ccc(C3(C(F)(F)F)CC3)cc2)C(=O)N1Cc1ccnc(NS(C)(=O)=O)c1 [Compound 166, N-(4-((5,5-dimethyl-2,4-dioxo-3-(4-(1-(trifluoromethyl)cyclopropyl)phenyl)imidazolidin-1-yl)methyl)pyridin-2-yl)methanesulfonamide]	500 to 2000
